# Reference: article PMC5862592, “CDK8/19 inhibition induces premature G1/S transition and ATR-dependent cell death in prostate cancer cells” (Oncotarget, 2018)
# Read-outs that look alike come from different tables or passages of the source.
# Columns and labels:
# Test in all cases: biochemical
# Set-up in all cases: KINOMEscan active site-directed competition binding assay (DiscoveRx), 456 kinases, per cent of control at 300 nM
# Settings in all cases: read-out: Percent of Control (%)
# [1] = molecular target: T1, ASK2 (Homo sapiens, UniProt O95382)
# T1 construct: gene MAP3K6
# Procedure, shortened: (§1)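 Active site-directed competition binding (KINOMEscan) across a 456-kinase panel, compounds tested at 300 nmol/L.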
# [2] = molecular target: BTK (Homo sapiens, UniProt Q06187)
# Procedure, shortened: as §1
# [3] = molecular target: CDK8 (Homo sapiens, UniProt P49336)
# Chain of CDK8 (P49336 whole entry): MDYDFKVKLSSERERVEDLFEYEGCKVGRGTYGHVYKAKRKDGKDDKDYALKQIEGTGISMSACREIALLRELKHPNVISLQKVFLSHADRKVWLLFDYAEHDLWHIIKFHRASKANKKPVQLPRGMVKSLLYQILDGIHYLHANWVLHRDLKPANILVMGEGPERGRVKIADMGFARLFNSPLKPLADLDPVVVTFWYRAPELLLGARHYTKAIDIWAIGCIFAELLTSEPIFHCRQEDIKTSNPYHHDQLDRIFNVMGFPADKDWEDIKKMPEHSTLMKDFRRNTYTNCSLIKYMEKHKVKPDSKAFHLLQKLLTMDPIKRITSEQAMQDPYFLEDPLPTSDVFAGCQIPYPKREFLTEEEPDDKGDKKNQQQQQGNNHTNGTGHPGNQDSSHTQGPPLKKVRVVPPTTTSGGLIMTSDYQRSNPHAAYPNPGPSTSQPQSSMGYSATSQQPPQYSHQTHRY
# Procedure, shortened: as §1
# [4] = molecular target: CHEK2 (Homo sapiens, UniProt O96017)
# Chain of CHEK2 (O96017 whole entry): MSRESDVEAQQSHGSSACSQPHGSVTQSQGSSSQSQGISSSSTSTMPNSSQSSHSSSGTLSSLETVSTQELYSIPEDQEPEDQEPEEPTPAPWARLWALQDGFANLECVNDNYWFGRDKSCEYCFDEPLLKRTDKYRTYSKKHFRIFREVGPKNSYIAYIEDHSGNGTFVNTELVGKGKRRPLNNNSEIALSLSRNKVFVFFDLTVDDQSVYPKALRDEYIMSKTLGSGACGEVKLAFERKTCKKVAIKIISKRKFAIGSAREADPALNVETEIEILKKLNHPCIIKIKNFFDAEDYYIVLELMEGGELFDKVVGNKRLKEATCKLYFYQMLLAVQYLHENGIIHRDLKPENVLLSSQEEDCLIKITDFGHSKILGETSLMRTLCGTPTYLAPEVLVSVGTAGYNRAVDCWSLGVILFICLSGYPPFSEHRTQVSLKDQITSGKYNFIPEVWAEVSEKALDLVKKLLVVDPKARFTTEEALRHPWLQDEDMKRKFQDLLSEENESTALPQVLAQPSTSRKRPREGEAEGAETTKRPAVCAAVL
# Procedure, shortened: as §1
# [5] = molecular target: CSNK1A1 (Homo sapiens, UniProt P48729)
# Procedure, shortened: as §1
# [6] = molecular target: CSNK1E (Homo sapiens, UniProt P49674)
# Procedure, shortened: as §1
# [7] = molecular target: DYRK2 (Homo sapiens, UniProt Q92630)
# Chain of DYRK2 (Q92630 whole entry): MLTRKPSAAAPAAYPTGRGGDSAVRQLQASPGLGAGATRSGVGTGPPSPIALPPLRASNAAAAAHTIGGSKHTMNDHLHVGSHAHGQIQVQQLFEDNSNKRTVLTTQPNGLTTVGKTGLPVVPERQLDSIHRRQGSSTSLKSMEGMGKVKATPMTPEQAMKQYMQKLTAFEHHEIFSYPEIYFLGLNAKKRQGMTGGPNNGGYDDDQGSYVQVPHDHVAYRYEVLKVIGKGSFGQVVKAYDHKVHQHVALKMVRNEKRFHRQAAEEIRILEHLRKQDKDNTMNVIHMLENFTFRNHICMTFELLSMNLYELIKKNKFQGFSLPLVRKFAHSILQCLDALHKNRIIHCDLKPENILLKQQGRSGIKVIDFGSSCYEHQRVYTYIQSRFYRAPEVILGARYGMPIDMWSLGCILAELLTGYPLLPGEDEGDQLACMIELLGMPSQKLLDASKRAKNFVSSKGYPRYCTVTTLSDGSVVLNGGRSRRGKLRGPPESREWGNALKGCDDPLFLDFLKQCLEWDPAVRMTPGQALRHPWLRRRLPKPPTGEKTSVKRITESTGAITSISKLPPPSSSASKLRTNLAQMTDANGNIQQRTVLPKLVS
# Procedure, shortened: as §1
# [8] = molecular target: EGFR(L858R,T790M) (Homo sapiens, UniProt P00533, L858R/T790M)
# Procedure, shortened: as §1
# [9] = molecular target: EGFR(L861Q) (Homo sapiens, UniProt P00533, L861Q)
# Procedure, shortened: as §1
# [10] = molecular target: FER (Homo sapiens, UniProt P16591)
# Procedure, shortened: as §1
# [11] = molecular target: FLT1 (Homo sapiens, UniProt P17948)
# Chain of FLT1 (P17948 whole entry): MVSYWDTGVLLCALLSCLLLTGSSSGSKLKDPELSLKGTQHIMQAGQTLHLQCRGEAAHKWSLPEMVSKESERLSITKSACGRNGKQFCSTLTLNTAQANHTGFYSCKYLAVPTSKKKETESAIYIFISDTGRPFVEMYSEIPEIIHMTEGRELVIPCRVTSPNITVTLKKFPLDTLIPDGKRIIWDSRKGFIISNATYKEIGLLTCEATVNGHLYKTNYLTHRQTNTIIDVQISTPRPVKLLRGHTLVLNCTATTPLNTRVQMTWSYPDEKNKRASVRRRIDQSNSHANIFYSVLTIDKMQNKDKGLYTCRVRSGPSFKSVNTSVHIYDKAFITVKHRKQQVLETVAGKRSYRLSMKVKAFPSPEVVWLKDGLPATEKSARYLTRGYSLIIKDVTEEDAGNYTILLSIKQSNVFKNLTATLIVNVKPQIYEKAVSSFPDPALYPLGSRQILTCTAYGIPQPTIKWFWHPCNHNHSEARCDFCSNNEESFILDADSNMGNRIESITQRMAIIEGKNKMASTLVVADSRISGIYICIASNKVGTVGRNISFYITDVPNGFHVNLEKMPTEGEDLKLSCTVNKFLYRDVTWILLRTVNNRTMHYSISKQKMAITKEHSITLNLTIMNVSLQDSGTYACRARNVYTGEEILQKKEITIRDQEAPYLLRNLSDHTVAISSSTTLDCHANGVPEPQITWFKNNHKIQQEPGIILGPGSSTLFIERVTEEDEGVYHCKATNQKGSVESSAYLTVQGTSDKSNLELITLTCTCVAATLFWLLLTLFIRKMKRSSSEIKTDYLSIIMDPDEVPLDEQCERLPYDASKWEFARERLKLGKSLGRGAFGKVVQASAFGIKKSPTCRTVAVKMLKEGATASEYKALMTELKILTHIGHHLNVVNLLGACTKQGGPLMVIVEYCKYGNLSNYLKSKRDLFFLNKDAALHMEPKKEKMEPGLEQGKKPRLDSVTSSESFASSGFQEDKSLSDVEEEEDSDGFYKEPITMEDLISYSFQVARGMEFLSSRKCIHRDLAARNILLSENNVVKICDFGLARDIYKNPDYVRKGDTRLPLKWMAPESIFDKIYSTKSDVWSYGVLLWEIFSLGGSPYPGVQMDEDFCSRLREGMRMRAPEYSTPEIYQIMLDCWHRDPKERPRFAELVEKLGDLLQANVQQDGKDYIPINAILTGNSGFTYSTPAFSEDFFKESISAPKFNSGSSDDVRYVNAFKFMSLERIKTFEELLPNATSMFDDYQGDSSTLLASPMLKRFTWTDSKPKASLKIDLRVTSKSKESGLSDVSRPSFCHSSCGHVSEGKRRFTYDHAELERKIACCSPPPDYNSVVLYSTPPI
# Procedure, shortened: as §1
# [12] = molecular target: INSRR (Homo sapiens, UniProt P14616)
# Procedure, shortened: as §1
# [13] = molecular target: MARK4 (Homo sapiens, UniProt Q96L34)
# Procedure, shortened: as §1
# [14] = molecular target: T2, MEK2 (Homo sapiens, UniProt P36507)
# T2 construct: gene MAP2K2
# Procedure, shortened: as §1
# [15] = molecular target: T3, MST2 (Homo sapiens, UniProt Q13188)
# T3 construct: gene STK3
# Procedure, shortened: as §1
# [16] = molecular target: PAK6 (Homo sapiens, UniProt Q9NQU5)
# Chain of PAK6 (Q9NQU5 whole entry): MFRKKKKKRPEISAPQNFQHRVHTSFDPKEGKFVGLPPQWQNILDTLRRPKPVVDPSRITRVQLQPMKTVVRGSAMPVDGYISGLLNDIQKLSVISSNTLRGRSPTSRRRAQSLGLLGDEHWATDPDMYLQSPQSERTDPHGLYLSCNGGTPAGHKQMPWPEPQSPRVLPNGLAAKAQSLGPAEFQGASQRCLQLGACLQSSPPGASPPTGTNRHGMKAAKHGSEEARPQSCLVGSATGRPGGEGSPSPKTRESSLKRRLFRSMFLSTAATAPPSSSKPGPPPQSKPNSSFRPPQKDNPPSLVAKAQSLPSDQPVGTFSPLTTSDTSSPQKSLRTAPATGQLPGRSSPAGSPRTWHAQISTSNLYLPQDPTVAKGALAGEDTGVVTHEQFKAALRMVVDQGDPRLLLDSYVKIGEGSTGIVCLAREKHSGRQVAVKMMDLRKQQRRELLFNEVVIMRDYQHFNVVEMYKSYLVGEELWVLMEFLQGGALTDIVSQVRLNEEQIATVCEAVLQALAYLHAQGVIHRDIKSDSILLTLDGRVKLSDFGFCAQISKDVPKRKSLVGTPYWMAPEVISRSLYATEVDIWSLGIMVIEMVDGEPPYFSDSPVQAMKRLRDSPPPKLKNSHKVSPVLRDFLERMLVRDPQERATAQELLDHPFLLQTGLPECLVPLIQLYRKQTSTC
# Procedure, shortened: as §1
# [17] = molecular target: PRKG1 (Homo sapiens, UniProt Q13976)
# Procedure, shortened: as §1
# [18] = molecular target: RET (Homo sapiens, UniProt P07949)
# Procedure, shortened: as §1
# [19] = molecular target: T4, SIK (Homo sapiens, UniProt P57059)
# T4 construct: gene SIK1
# T4 sequence (P57059 whole entry): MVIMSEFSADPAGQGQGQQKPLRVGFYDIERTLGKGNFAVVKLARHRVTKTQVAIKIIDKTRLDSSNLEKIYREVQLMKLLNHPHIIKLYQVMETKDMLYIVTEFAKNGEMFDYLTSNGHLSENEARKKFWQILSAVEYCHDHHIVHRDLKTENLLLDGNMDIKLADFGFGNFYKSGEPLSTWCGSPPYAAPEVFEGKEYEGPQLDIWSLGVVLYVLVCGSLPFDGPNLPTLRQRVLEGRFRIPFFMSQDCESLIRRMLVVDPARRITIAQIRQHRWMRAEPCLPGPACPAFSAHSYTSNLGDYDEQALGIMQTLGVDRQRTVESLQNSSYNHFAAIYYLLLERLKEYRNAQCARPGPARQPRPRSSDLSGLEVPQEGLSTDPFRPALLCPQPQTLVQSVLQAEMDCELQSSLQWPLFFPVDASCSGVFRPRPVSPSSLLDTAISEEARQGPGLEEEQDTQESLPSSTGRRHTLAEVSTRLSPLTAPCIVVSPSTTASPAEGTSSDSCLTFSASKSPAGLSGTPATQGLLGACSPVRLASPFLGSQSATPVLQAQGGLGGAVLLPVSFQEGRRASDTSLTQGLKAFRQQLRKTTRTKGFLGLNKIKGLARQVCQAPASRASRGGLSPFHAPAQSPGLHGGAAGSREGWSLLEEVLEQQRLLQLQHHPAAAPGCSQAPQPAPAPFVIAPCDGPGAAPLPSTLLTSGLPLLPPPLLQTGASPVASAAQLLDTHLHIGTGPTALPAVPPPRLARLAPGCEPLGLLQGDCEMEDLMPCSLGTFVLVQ
# Procedure, shortened: as §1
# [20] = molecular target: SRC (Homo sapiens, UniProt P12931)
# Procedure, shortened: as §1
# [21] = molecular target: TLK2 (Homo sapiens, UniProt Q86UE8)
# Procedure, shortened: as §1
# [22] = molecular target: WEE1 (Homo sapiens, UniProt P30291)
# Chain of WEE1 (P30291 whole entry): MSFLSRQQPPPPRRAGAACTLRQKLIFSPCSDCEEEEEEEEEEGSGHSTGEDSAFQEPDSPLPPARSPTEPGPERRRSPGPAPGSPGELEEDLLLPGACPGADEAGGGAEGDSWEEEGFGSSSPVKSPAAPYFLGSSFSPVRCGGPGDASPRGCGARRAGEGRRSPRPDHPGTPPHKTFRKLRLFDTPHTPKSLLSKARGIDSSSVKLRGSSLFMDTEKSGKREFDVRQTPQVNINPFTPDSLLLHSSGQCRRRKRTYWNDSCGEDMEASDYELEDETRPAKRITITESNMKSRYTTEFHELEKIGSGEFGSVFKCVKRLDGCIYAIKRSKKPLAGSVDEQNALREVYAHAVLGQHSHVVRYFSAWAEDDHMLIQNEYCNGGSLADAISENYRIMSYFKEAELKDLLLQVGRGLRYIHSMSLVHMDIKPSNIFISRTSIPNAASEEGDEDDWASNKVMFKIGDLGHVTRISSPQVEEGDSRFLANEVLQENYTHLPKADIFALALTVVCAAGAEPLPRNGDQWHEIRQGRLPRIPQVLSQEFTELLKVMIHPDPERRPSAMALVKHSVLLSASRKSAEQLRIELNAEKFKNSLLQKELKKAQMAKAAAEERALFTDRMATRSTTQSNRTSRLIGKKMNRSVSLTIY
# Procedure, shortened: as §1
compound,measurement,setting,value
"O=C(/C=C/c1cnccc1-c1ccc(F)cc1)Nc1ccc(CCc2nnco2)cc1 [T-418, (2E)-3-(4-(4-fluorophenyl)pyridin-3-yl)-N-(4-(2-(1,3,4-oxadiazol-2-yl)ethyl)phenyl)acrylamide]",remaining binding at 0.3 µM,[1]; sheet T-418,94%
same,remaining binding at 0.3 µM,[2]; sheet T-418,79%
same,remaining binding at 0.3 µM,[3]; sheet T-418,48%
same,remaining binding at 0.3 µM,[4]; sheet T-418,89%
same,remaining binding at 0.3 µM,[5]; sheet T-418,100%
same,remaining binding at 0.3 µM,[6]; sheet T-418,89%
same,remaining binding at 0.3 µM,[7]; sheet T-418,100%
same,remaining binding at 0.3 µM,[8]; sheet T-418,98%
same,remaining binding at 0.3 µM,[9]; sheet T-418,86%
same,remaining binding at 0.3 µM,[10]; sheet T-418,98%
same,remaining binding at 0.3 µM,[11]; sheet T-418,100%
same,remaining binding at 0.3 µM,[12]; sheet T-418,100%
same,remaining binding at 0.3 µM,[13]; sheet T-418,98%
same,remaining binding at 0.3 µM,[14]; sheet T-418,100%
same,remaining binding at 0.3 µM,[15]; sheet T-418,46%
same,remaining binding at 0.3 µM,[16]; sheet T-418,85%
same,remaining binding at 0.3 µM,[17]; sheet T-418,87%
same,remaining binding at 0.3 µM,[18]; sheet T-418,63%
same,remaining binding at 0.3 µM,[19]; sheet T-418,87%
same,remaining binding at 0.3 µM,[20]; sheet T-418,90%
same,remaining binding at 0.3 µM,[21]; sheet T-418,100%
same,remaining binding at 0.3 µM,[22]; sheet T-418,90%
"Cc1ncccc1Oc1sc(C(N)=O)c2c1-c1c(cnn1C)CC2 [T-474, 1-methyl-8-((2-methylpyridin-3-yl)oxy)-4,5-dihydro-1H-thieno[3,4-g]indazole-6-carboxamide]",remaining binding at 0.3 µM,[1],100%
same,remaining binding at 0.3 µM,[2],81%
same,remaining binding at 0.3 µM,[3],9.8%
same,remaining binding at 0.3 µM,[4],100%
same,remaining binding at 0.3 µM,[5],98%
same,remaining binding at 0.3 µM,[6],76%
same,remaining binding at 0.3 µM,[7],100%
same,remaining binding at 0.3 µM,[8],85%
same,remaining binding at 0.3 µM,[9],91%
same,remaining binding at 0.3 µM,[10],90%
same,remaining binding at 0.3 µM,[11],100%
same,remaining binding at 0.3 µM,[12],100%
same,remaining binding at 0.3 µM,[13],83%
same,remaining binding at 0.3 µM,[14],100%
same,remaining binding at 0.3 µM,[15],50%
same,remaining binding at 0.3 µM,[16],89%
same,remaining binding at 0.3 µM,[17],100%
same,remaining binding at 0.3 µM,[18],100%
same,remaining binding at 0.3 µM,[19],100%
same,remaining binding at 0.3 µM,[20],96%
same,remaining binding at 0.3 µM,[21],100%
same,remaining binding at 0.3 µM,[22],90%
